The experiment has as its target T1, LCAT (Homo sapiens, UniProt P04180).
T1 construct: The obtained fraction was dialyzed against phosphate-buffered saline (pH 7.4) and used as an enzyme source and an acceptor for LCAT; from tissue; host or cells: HDL3 fraction (1.125<specific gravity<1.210 g/mL) of plasma from a healthy person
T1 sequence (P04180 25-440): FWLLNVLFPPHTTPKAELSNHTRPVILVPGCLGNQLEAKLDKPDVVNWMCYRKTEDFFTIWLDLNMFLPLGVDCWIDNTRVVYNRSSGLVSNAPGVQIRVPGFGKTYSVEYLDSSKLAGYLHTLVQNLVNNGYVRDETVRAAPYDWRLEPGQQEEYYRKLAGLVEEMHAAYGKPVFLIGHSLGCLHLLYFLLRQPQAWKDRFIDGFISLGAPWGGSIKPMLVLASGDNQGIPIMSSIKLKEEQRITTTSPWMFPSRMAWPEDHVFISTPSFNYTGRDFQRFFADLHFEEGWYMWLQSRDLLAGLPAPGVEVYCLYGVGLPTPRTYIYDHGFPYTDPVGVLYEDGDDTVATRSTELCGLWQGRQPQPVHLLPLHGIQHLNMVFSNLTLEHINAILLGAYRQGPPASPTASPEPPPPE
The experiment can be described thus: LCAT Activity Measurement (In Vitro). The class given is biochemical. The settings on record: EC50 of LCAT activation; HDL3 fraction from plasma of a healthy person as enzyme source and acceptor; [14C]cholesterol; 37° C., approximately 16 hours. On the procedure: A fraction composed of HDL3 (1.125<specific gravity<1.210 g/mL) was obtained from the plasma of a healthy person by density gradient centrifugation. The obtained fraction was dialyzed against phosphate-buffered saline (pH 7.4) and used as an enzyme source and an acceptor for LCAT. Each test drug was prepared by dissolution in dimethyl sulfoxide. [14C]Cholesterol containing DTNB (Ellman's reagent, final concentration: 0.5 mM), mercaptoethanol (final concentration: 12.5 mM), and 0.6% bovine serum albumin was added to phosphate-buffered saline (pH 7.4) containing 1 mg/mL HDL3, and the test drug was further added thereto at varying concentrations to adjust the whole amount to 80 μL. This mixture was incubated at 37° C. for approximately 16 hours. Then, a mixed solution of hexane and isopropanol (mixing ratio=3:2) was added thereto to stop the reaction. After stirring, the hexane layer was collected, and this layer was evaporated to dryness. A chloroform solution (concentration: 10 mg/mL) was added thereto, and the mixture was spotted onto a thin-layer silica gel plate and developed using a mixed solution of hexane, diethyl ether, and ethyl acetate (mixing ratio=85:15:2). The radioactivity of a portion corresponding to cholesterol oleate was measured using an imaging analyzer BAS-2500 (manufactured by Fujifilm Corp.). A sample non-supplemented with the test drug was similarly treated and assayed. The EC50 value of LCAT activation was calculated according to the expression given below relative to LCAT activity in the sample non-supplemented with the test drug.
wherein X represents the logarithm of the concentration of the test drug;
Y represents the responsiveness (LCAT activity) of the test drug;
Top represents the maximum value (maximum plateau);
Bottom represents the minimum value (minimum plateau); and
EC50 represents the 50% effective concentration.
Take `Cc1cc(N2CCC(c3n[nH]c4c3C(O)(C(F)(F)F)CC(=O)N4)CC2)ncc1C#N` (centres unmarked) [Example 42, 6-{4-[4-Hydroxy-6-oxo-4-(trifluoromethyl)-4,5,6,7-tetrahydro-1H-pyrazolo[3,4-b]pyridin-3-yl]piperidin-1-yl}-4-methylpyridine-3-carbonitrile]: a half-maximal effect (EC50) was put at 140 nM. `O=C1CC(O)(C(F)(F)F)c2c(C3CCN(c4ccc(C(F)(F)F)nn4)CC3)n[nH]c2N1` (centres unmarked) [Example 43, 4-Hydroxy-4-(trifluoromethyl)-3-{1-[6-(trifluoromethyl)pyridazin-3-yl]piperidin-4-yl}-1,4,5,7-tetrahydro-6H-pyrazolo[3,4-b]pyridin-6-one] returned an EC50 of 56 nM.

`O=C1CC(O)(C(F)(F)F)c2c(C3CCN(c4ncc(C(F)(F)F)cn4)CC3)n[nH]c2N1` (centres unmarked) [Example 44, 4-Hydroxy-4-(trifluoromethyl)-3-{1-[5-(trifluoromethyl)pyrimidin-2-yl]piperidin-4-yl}-1,4,5,7-tetrahydro-6H-pyrazolo[3,4-b]pyridin-6-one]: a half-maximal effect (EC50) was put at 360 nM. With `O=C1CC(O)(C(F)(F)F)c2c(C3CCN(c4cc(C(F)(F)F)ncn4)CC3)n[nH]c2N1` (centres unmarked) [Example 45, 4-Hydroxy-4-(trifluoromethyl)-3-{1-[6-(trifluoromethyl)pyrimidin-4-yl]piperidin-4-yl}-1,4,5,7-tetrahydro-6H-pyrazolo[3,4-b]pyridin-6-one], the EC50 is 140 nM. `O=C1CC(O)(C(F)(F)F)c2c(C3CCN(c4cnc(C(F)(F)F)cn4)CC3)n[nH]c2N1` (centres unmarked) [Example 46, 4-Hydroxy-4-(trifluoromethyl)-3-{1-[5-(trifluoromethyl)pyrazin-2-yl]piperidin-4-yl}-1,4,5,7-tetrahydro-6H-pyrazolo[3,4-b]pyridin-6-one] came in with an EC50 of 12 nM. The molecule `O=C1CC(O)(C(F)(F)F)c2c(C3CCN(c4nnc(C(F)(F)F)s4)CC3)n[nH]c2N1` (centres unmarked) [Example 47, 4-Hydroxy-4-(trifluoromethyl)-3-{1-[5-(trifluoromethyl)-1,3,4-thiadiazol-2-yl]piperidin-4-yl}-1,4,5,7-tetrahydro-6H-pyrazolo[3,4-b]pyridin-6-one] yielded an EC50 of 96 nM. As to `O=C1CC(O)(C(F)(F)F)c2c(C3CCN(c4ccc(OC(F)F)cn4)CC3)n[nH]c2N1` (centres unmarked) [Example 51, 3-{1-[5-(Difluoromethoxy)pyridin-2-yl]piperidin-4-yl}-4-hydroxy-4-(trifluoromethyl)-1,4,5,7-tetrahydro-6H-pyrazolo[3,4-b]pyridin-6-one], the response was half-maximal at 81 nM (EC50). As for `CC(C)Oc1ccc(N2CCC(c3n[nH]c4c3C(O)(C(F)(F)F)CC(=O)N4)CC2)nc1` (centres unmarked) [Example 52, 4-Hydroxy-3-{1-[5-(propan-2-yloxy)pyridin-2-yl]piperidin-4-yl}-4-(trifluoromethyl)-1,4,5,7-tetrahydro-6H-pyrazolo[3,4-b]pyridin-6-one], the concentration giving a half-maximal response (EC50) was 67 nM. The value for `O=C1CC(O)(C(F)(F)F)c2c(C3CCN(c4cncc(C(F)(F)F)c4)CC3)n[nH]c2N1` (centres unmarked) [Example 53, 4-Hydroxy-4-(trifluoromethyl)-3-{1-[5-(trifluoromethyl)pyridin-3-yl]piperidin-4-yl}-1,4,5,7-tetrahydro-6H-pyrazolo[3,4-b]pyridin-6-one] was 50 nM; that for `O=C1CC(O)(C(F)(F)F)c2c(C3CCN(c4ccc(OC(F)F)nc4)CC3)n[nH]c2N1` (centres unmarked) [Example 54, 3-{1-[6-(Difluoromethoxy)pyridin-3-yl]piperidin-4-yl}-4-hydroxy-4-(trifluoromethyl)-1,4,5,7-tetrahydro-6H-pyrazolo[3,4-b]pyridin-6-one] was 70 nM; that for `O=C1CC(O)(C(F)(F)F)c2c(C3CCN(c4ccc(OC(F)F)cc4)CC3)n[nH]c2N1` (centres unmarked) [Example 55, 3-{1-[4-(Difluoromethoxy)phenyl]piperidin-4-yl}-4-hydroxy-4-(trifluoromethyl)-1,4,5,7-tetrahydro-6H-pyrazolo[3,4-b]pyridin-6-one] was 79 nM.

On to `CC(C)Oc1ccc(N2CCC(c3n[nH]c4c3C(O)(C(F)(F)F)CC(=O)N4)CC2)cn1` (centres unmarked) [Example 57, 4-Hydroxy-3-{1-[6-(propan-2-yloxy)pyridin-3-yl]piperidin-4-yl}-4-(trifluoromethyl)-1,4,5,7-tetrahydro-6H-pyrazolo[3,4-b]pyridin-6-one], for which the EC50 came out at 100 nM. For `O=C1CC(O)(C(F)(F)F)c2c(C3CCN(c4ccc(OC(F)(F)F)cc4)CC3)n[nH]c2N1` (centres unmarked) [Example 58, 4-Hydroxy-3-{1-[4-(trifluoromethoxy)phenyl]piperidin-4-yl}-4-(trifluoromethyl)-1,4,5,7-tetrahydro-6H-pyrazolo[3,4-b]pyridin-6-one], it took 20 nM to reach a half-maximal effect (EC50). `CCOc1ccc(N2CCC(c3n[nH]c4c3C(O)(C(F)(F)F)CC(=O)N4)CC2)cc1` (centres unmarked) [Example 59, 3-[1-(4-Ethoxyphenyl)piperidin-4-yl]-4-hydroxy-4-(trifluoromethyl)-1,4,5,7-tetrahydro-6H-pyrazolo[3,4-b]pyridin-6-one] gave an EC50 of 260 nM. For the molecule `N#Cc1cc(N2CCC(c3n[nH]c4c3C(O)(C(F)(F)F)CC(=O)N4)CC2)ccc1OC(F)F` (centres unmarked) [Example 60, 2-(Difluoromethoxy)-5-{4-[4-hydroxy-6-oxo-4-(trifluoromethyl)-4,5,6,7-tetrahydro-1H-pyrazolo[3,4-b]pyridin-3-yl]piperidin-1-yl}benzonitrile], the EC50 was found to be 21 nM. Molecule `O=C1CC(O)(C(F)(F)F)c2c(C3CCN(c4ccc(OC5CCC5)nc4)CC3)n[nH]c2N1` (centres unmarked) [Example 61, 3-{1-[6-(Cyclobutoxy)pyridin-3-yl]piperidin-4-yl}-4-hydroxy-4-(trifluoromethyl)-1,4,5,7-tetrahydro-6H-pyrazolo[3,4-b]pyridin-6-one] displayed an EC50 of 100 nM. For `N#Cc1cc(N2CCC(c3n[nH]c4c3C(O)(C(F)(F)F)CC(=O)N4)CC2)ccc1OC(F)(F)F` (centres unmarked) [Example 62, 5-{4-[4-Hydroxy-6-oxo-4-(trifluoromethyl)-4,5,6,7-tetrahydro-1H-pyrazolo[3,4-b]pyridin-3-yl]piperidin-1-yl}-2-(trifluoromethoxy)benzonitrile], the midpoint of the response, the EC50, lay at 7 nM. `O=C1CC(O)(C(F)(F)F)c2c(C3CCN(c4cnc(OC(F)F)c(OC(F)F)c4)CC3)n[nH]c2N1` (centres unmarked) [Example 63, 3-{1-[5,6-bis(Difluoromethoxy)pyridin-3-yl]piperidin-4-yl}-4-hydroxy-4-(trifluoromethyl)-1,4,5,7-tetrahydro-6H-pyrazolo[3,4-b]pyridin-6-one] yielded an EC50 of 31 nM. The value for `CC(C)c1ccc(N2CCC(c3n[nH]c4c3C(O)(C(F)(F)F)CC(=O)N4)CC2)nc1` (centres unmarked) [Example 64, 4-Hydroxy-3-{1-[5-isopropylpyridin-2-yl]piperidin-4-yl]-4-(trifluoromethyl)-1,4,5,7-tetrahydro-6H-pyrazolo[3,4-b]pyridin-6-one] was 56 nM; that for `O=C1CC(O)(C(F)(F)F)c2c(C3CCN(c4cnc(C(F)(F)F)nc4)CC3)n[nH]c2N1` (centres unmarked) [Example 65, 4-Hydroxy-4-(trifluoromethyl)-3-{1-[2-(trifluoromethyl)pyrimidin-5-yl]piperidin-4-yl}-1,4,5,7-tetrahydro-6H-pyrazolo[3,4-b]pyridin-6-one] was 13 nM; that for `O=C1CC(O)(C(F)(F)F)c2c(C3CCN(c4cnc(C5CC5)nc4)CC3)n[nH]c2N1` (centres unmarked) [Example 66, 3-[1-(2-Cyclopropylpyrimidin-5-yl)piperidin-4-yl]-4-hydroxy-4-(trifluoromethyl)-1,4,5,7-tetrahydro-6H-pyrazolo[3,4-b]pyridin-6-one] was 68 nM. `CN(C)c1ncc(N2CCC(c3n[nH]c4c3C(O)(C(F)(F)F)CC(=O)N4)CC2)cn1` (centres unmarked) [Example 67, 3-{1-[2-(Dimethylamino)pyrimidin-5-yl]piperidin-4-yl}-4-hydroxy-4-(trifluoromethyl)-1,4,5,7-tetrahydro-6H-pyrazolo[3,4-b]pyridin-6-one] registered an EC50 of 330 nM. As to `CN(C)c1ccc(N2CCC(c3n[nH]c4c3C(O)(C(F)(F)F)CC(=O)N4)CC2)cn1` (centres unmarked) [Example 68, 3-{1-[6-(Dimethylamino)pyridin-3-yl]piperidin-4-yl}-4-hydroxy-4-(trifluoromethyl)-1,4,5,7-tetrahydro-6H-pyrazolo[3,4-b]pyridin-6-one], the EC50 was 760 nM.

Values taken from patent US9150575B2, “Piperidinylpyrazolopyridine derivative” (Daiichi Sankyo Company, Limited, priority 2012, dated 2015).
